Data on one molecule can be found in ChEMBL document CHEMBL6109120, “Discovery of Novel SIK2/3 Inhibitors for the Potential Treatment of MEF2C+ Acute Myeloid Leukemia (AML)” (J Med Chem, 2025).

The target in assay [1] is Mast/stem cell growth factor receptor Kit (Homo sapiens, UniProt P10721). Put plainly: Binding affinity to human KIT by KINOMEscan assay.
The target in assay [2] is Tyrosine-protein kinase Lck (Homo sapiens, UniProt P06239). As to the kind of experiment: Binding affinity to human LCK by KINOMEscan assay.
The target in assay [3] is MAP kinase-interacting serine/threonine-protein kinase 2 (Homo sapiens, UniProt Q9HBH9). Put plainly: Binding affinity to human MKNK2 by KINOMEscan assay.
Another assay concerns the target T1, Cytochrome P450 1A2 (Homo sapiens, UniProt P05177).
T1 sequence (P05177 whole entry): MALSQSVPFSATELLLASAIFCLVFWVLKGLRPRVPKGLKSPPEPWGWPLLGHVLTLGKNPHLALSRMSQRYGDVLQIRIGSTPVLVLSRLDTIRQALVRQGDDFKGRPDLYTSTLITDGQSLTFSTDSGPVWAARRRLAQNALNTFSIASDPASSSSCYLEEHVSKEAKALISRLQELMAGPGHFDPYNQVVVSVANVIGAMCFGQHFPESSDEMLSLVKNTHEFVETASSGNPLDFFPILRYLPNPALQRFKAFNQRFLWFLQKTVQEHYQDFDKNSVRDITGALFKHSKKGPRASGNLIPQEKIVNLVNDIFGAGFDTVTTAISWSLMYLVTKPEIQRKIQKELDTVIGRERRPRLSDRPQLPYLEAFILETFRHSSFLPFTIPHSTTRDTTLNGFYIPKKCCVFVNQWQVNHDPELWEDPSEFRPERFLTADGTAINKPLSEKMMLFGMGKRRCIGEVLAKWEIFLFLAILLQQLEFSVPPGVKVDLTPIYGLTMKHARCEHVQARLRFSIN
Put plainly: Inhibition of CYP1A2 in human liver microsomes assessed as Phenacetin O-deethylation reaction measured after 30 mins by LC/MS/MS analysis. Type of assay: ADME, Microsome.

Another assay deals with Cytochrome P450 2C19 (Homo sapiens, UniProt P33261). Put plainly: Inhibition of CYP2C19 in human liver microsomes assessed as S-mephenytoin 4-hydroxylation reaction measured after 30 mins by LC/MS/MS analysis. In kind it is ADME, Microsome.
For a further assay, the target named is Cytochrome P450 3A4 (Homo sapiens, UniProt P08684). Put plainly: Inhibition of CYP3A4 in human liver microsomes assessed as midazolam 1-hydroxylation reaction measured after 30 mins by LC/MS/MS analysis. Type of assay: ADME, Microsome.
For assay [4], the target named is T2, Cyclin-G-associated kinase (Homo sapiens, UniProt O14976).
T2 sequence (O14976 whole entry): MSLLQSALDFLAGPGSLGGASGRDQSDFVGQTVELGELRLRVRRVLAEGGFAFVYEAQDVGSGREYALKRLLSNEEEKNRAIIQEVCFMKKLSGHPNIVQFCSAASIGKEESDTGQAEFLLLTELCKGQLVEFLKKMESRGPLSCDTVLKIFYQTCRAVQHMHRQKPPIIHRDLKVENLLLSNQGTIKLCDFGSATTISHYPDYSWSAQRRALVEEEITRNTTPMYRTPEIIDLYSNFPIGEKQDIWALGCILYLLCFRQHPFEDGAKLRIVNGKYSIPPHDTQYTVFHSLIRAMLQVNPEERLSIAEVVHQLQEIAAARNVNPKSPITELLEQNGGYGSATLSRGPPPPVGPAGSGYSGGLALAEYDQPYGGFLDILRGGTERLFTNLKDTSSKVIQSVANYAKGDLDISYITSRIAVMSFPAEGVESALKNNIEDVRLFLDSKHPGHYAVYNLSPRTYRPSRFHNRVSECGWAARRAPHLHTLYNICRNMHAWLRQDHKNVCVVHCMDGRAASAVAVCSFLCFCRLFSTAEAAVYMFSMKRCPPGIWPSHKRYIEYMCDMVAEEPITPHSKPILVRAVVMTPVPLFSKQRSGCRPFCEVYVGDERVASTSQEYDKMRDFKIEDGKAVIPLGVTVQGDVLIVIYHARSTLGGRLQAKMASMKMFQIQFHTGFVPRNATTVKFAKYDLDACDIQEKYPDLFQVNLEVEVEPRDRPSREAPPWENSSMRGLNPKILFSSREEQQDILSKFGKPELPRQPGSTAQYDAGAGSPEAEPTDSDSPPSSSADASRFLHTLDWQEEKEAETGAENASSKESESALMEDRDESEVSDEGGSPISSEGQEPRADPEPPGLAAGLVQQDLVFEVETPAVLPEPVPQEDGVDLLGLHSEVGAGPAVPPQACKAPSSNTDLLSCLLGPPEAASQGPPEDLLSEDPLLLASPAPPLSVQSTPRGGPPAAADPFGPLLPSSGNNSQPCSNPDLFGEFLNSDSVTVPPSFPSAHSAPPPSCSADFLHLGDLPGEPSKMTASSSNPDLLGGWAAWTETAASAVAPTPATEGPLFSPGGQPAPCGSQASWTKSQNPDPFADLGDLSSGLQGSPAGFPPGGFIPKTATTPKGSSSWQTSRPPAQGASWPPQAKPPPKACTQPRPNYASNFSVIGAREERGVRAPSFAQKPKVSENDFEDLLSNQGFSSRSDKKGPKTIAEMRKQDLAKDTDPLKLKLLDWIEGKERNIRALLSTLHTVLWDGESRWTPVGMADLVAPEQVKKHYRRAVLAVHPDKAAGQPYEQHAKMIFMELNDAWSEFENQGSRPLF
Description: Binding affinity to human GAK by KINOMEscan assay

The target in assay [5] is T3, Dual specificity mitogen-activated protein kinase kinase 5 (Homo sapiens, UniProt Q13163).
T3 sequence (Q13163 whole entry): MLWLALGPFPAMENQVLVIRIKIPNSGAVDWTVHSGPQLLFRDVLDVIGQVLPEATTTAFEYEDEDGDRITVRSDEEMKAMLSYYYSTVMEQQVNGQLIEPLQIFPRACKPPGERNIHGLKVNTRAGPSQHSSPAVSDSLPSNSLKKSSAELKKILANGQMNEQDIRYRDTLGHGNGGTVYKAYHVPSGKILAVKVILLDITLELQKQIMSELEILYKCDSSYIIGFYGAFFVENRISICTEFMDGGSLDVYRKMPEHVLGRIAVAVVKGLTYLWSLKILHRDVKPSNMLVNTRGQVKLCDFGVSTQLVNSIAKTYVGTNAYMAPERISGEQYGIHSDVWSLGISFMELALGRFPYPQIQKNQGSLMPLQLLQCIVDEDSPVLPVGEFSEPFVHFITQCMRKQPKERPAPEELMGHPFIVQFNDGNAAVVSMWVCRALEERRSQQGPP
Description: Binding affinity to human MEK5 by KINOMEscan assay

Sequence of Mast/stem cell growth factor receptor Kit (P10721 whole entry): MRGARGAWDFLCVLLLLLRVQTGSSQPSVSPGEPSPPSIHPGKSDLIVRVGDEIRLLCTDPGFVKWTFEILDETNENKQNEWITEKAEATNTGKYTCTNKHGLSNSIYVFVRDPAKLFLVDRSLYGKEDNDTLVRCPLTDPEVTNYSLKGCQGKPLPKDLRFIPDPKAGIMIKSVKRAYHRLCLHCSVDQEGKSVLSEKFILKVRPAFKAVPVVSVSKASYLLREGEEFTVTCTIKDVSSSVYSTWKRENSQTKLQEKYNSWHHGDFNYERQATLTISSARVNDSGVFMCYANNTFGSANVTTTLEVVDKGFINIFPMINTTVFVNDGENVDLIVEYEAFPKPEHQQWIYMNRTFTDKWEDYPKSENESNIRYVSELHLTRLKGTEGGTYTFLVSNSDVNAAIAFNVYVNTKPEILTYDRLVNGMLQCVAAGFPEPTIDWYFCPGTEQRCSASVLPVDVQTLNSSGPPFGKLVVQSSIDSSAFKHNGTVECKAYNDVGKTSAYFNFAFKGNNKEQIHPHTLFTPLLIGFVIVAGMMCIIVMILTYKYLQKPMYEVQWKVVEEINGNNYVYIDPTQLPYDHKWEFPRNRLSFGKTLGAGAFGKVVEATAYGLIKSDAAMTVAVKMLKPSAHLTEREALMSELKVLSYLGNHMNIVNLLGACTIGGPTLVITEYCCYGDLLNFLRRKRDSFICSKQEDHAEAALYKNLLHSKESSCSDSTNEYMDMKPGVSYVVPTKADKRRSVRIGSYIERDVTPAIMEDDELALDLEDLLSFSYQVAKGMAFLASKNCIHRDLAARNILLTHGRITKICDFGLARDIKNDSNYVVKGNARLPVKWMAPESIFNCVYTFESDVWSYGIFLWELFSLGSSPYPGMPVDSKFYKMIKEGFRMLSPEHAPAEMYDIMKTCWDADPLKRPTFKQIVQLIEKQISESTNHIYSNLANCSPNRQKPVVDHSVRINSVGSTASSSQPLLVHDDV
Sequence of Tyrosine-protein kinase Lck (P06239 whole entry): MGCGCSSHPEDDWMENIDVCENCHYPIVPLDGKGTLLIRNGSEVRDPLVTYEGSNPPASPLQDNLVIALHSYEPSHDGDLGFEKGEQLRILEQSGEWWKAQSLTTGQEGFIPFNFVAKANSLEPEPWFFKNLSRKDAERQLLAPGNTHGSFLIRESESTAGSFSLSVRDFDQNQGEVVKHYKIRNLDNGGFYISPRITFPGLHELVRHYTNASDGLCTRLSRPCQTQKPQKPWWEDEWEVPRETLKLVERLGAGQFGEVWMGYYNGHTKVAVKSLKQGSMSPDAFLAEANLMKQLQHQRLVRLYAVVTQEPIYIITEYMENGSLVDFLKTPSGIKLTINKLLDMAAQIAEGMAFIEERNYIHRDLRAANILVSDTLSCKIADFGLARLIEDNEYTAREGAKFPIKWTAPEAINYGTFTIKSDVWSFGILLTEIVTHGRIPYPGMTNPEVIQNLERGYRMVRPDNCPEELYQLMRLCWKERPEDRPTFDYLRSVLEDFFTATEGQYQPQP
Sequence of Cytochrome P450 3A4 (P08684 whole entry): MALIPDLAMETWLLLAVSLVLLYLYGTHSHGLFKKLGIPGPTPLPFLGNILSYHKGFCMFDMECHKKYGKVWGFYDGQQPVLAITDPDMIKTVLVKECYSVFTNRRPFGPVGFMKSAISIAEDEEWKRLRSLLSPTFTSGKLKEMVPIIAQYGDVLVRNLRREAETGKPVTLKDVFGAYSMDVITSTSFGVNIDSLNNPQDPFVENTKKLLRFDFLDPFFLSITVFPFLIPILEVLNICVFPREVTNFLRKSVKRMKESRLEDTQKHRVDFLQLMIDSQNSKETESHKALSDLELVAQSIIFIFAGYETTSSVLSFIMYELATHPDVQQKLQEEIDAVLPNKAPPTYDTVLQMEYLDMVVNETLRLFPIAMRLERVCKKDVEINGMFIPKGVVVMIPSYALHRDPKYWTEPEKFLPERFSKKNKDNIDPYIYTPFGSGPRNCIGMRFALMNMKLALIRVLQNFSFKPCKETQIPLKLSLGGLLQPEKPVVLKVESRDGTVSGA
Sequence of Cytochrome P450 2C19 (P33261 whole entry): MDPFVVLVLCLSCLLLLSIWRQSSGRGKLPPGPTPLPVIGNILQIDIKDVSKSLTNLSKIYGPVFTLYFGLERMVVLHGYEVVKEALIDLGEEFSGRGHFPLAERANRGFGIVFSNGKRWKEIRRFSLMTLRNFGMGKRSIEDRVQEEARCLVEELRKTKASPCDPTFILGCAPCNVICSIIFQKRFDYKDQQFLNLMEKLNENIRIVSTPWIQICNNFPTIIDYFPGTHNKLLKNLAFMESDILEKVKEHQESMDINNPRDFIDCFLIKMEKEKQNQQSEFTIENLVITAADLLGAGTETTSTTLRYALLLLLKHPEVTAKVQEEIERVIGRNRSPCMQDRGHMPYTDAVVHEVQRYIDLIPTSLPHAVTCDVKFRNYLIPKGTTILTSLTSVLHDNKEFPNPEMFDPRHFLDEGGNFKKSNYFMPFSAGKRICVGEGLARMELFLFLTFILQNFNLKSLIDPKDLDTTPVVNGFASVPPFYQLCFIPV
Sequence of MAP kinase-interacting serine/threonine-protein kinase 2 (Q9HBH9 whole entry): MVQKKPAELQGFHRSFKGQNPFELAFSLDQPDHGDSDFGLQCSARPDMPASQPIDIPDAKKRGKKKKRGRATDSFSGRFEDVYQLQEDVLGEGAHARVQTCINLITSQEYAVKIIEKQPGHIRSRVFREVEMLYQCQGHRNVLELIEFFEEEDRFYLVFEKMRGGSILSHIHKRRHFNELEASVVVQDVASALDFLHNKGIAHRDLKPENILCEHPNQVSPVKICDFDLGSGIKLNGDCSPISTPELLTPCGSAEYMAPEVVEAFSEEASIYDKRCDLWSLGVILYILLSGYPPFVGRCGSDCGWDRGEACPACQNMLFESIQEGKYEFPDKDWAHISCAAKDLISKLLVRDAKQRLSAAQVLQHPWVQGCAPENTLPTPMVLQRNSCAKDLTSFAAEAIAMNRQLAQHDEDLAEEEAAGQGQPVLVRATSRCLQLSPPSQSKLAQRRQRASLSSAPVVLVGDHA

Take `COc1nc(-c2cc(-c3cnn(C)c3)cnc2N)cc2c1C(=O)N(CC(F)(F)F)CC2`: the concentration for half-maximal inhibition (IC50) was 594 nM in assay [1]; 326 nM in assay [2]; 15 nM in assay [3]; > 50000 nM on Cytochrome P450 1A2; > 50000 nM at Cytochrome P450 2C19; > 50000 nM at Cytochrome P450 3A4. In addition, the IC50 in assay [4] was found to be 492 nM; in assay [5] it was 2650 nM.
